We go through 3 compounds from US20020028807A1, “Non-nucleoside reverse transcriptase inhibitors” (priority 2000, published 2002).

Assay [1] has as its target T1, HIV-1 RT K103N/P225H (Human immunodeficiency virus type 1 group M subtype B, UniProt P03366, K702N/P824H).
T1 construct: an HIV RT clone pKRT2 containing only the RT p66 gene regulated by the lac operon/trc promoter; made in house; host or cells: E. coli JM109, vector pKK233-2
The assay can be described thus: Reverse transcriptase (RT) assay, K103N/P225H mutant. Type of assay: biochemical. The method, boiled down: (§1)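 First, RT mutants were generated by site-directed mutagenesis of the BH10 p66 gene, expressed in E. coli and purified as p66/p51 heterodimer. Then compounds were tested for inhibition of DNA synthesis on biotinylated oligo d(G)-primed poly r(C), with 3H-dGTP supplying label.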

The target of assay [2] is T2, HIV-1 RT K103N/V108I (Human immunodeficiency virus type 1 group M subtype B, UniProt P03366, K702N/V707I).
T2 construct: an HIV RT clone pKRT2 containing only the RT p66 gene regulated by the lac operon/trc promoter; made in house; host or cells: E. coli JM109, vector pKK233-2
The assay can be described thus: Reverse transcriptase (RT) assay, K103N/V108I mutant. It counts as biochemical. The essentials:
as §1

Assay [3] deals with HIV coding for mutant reverse transcriptase K103N/Y181C. The assay can be described thus: ELISA (p24) assay of HIV replication in C8166 cell culture, K103N/Y181C virus. It counts as cell-based, HIV-1. The following applies: Human immunodeficiency virus 1, C8166, 72 h, read-out: EC50 K103N/Y181C. The protocol: (§2) Compounds of the invention were tested for their ability to inhibit HIV replication in cell culture in a 96-well plate assay. Complete RPMI 1640, consisting of RPMI 1640+10% fetal bovine serum, 10 μg/ml gentamycin and 10 μM β-mercaptoethanol was used for dilution of the compound as well as cell growth medium. The T lymphocyte cell line C8166 was infected at a multiplicity of infection of 0.001 with viruses coding for wild-type and mutant reverse transcriptase. Cells were then incubated for three days in the presence of serial dilutions of the compounds of the invention. The supernatant was pooled from eight replica wells and the concentration of extracellular p24 was determined using a commercially available HIV-1 p24 antigen assay kit (Beckman-Coulter®). The level of inhibition (% inhibition) was calculated with the following equation: [formula]
On the technique in general: In an ELISA, binding on a coated surface is turned into a signal by an enzyme label.

In assay [4] the test system is HIV coding for mutant reverse transcriptase Y181C. The assay can be described thus: ELISA (p24) assay of HIV replication in C8166 cell culture, Y181C virus. It counts as cell-based, HIV-1. The following applies: Human immunodeficiency virus 1, C8166, 72 h, read-out: EC50 Y181C. The protocol: as §2
Assay [5] relates to HIV coding for mutant reverse transcriptase K103N/V108I. The assay can be described thus: ELISA (p24) assay of HIV replication in C8166 cell culture, K103N/V108I virus. The following applies: Human immunodeficiency virus 1, C8166, 72 h, read-out: EC50 K103N/V108I. Type of assay: cell-based, HIV-1. As to the method:
as §2

Assay [6] deals with T3, HIV-1 RT V106A (Human immunodeficiency virus type 1 group M subtype B, UniProt P03366, V705A).
T3 construct: an HIV RT clone pKRT2 containing only the RT p66 gene regulated by the lac operon/trc promoter; made in house; host or cells: E. coli JM109, vector pKK233-2
The experiment in a line: Reverse transcriptase (RT) assay, V106A mutant. It counts as biochemical. The essentials:
as §1

The target in assay [7] is T4, HIV-1 RT K103N/L100I (Human immunodeficiency virus type 1 group M subtype B, UniProt P03366, K702N/L699I).
T4 construct: an HIV RT clone pKRT2 containing only the RT p66 gene regulated by the lac operon/trc promoter; made in house; host or cells: E. coli JM109, vector pKK233-2
The assay can be described thus: Reverse transcriptase (RT) assay, K103N/L100I mutant. Type of assay: biochemical. The essentials:
as §1

Assay [8] has as its system HIV coding for wild-type reverse transcriptase (WT RT). The assay can be described thus: ELISA (p24) assay of HIV replication in C8166 cell culture, wild-type RT virus. Type of assay: cell-based, HIV-1. The following applies: Human immunodeficiency virus 1, C8166, 72 h, read-out: EC50 WT RT. The essentials: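 C8166 T cells infected at MOI 0.001 with wild-type or mutant RT HIV, then grown 3 days with serial compound dilutions in RPMI 1640 + 10% FBS. Extracellular p24 in supernatant pooled from eight replica wells measured by ELISA; % inhibition calculated from p24 levels.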

The target of assay [9] is T5, HIV-1 RT P23L (Human immunodeficiency virus type 1 group M subtype B, UniProt P03366, P835L).
T5 construct: an HIV RT clone pKRT2 containing only the RT p66 gene regulated by the lac operon/trc promoter; made in house; host or cells: E. coli JM109, vector pKK233-2
The experiment in a line: Reverse transcriptase (RT) assay, P23L mutant. Type of assay: biochemical. An excerpt:
Among the enzymes for which Human Immunodeficiency Virus (HIV-1) encodes is a reverse transcriptase (1), so-named because it transcribes a DNA copy from an RNA template. This activity can be quantitatively measured in a cell-free enzyme assay and is based upon the observation that reverse transcriptase is able to use a synthetic template poly r(C) primed with a biotinylated oligo d(G) to transcribe a radio-labelled DNA strand utilising 3H-dGTP as a substrate. The assay described below utilises the wild-type enzyme (which is the predominant form of the enzyme observed in patients infected with HIV-1) and can also be used with mutant RT enzymes (for example, Y181C, prepared by site-directed mutagenesis in which the tyrosine residue at codon 181 has been replaced by a cysteine residue) in analogous assay conditions. This assay allows compounds to be evaluated for their effectiveness at inhibiting the mutant enzymes.
Some HIV-1 IIIB clone BH10 RT mutants were provided by Dr. C.-K. Shih (Boehringer Ingelheim Pharmaceutials Inc., U.S.A.) in the vector pKK233-2 (Pharmacia). Briefly an HIV RT clone pKRT2 containing only the RT p66 gene regulated by the lac operon/trc promoter was obtained from Dr. W. Summers (Yale University) (2). A variety of specific amino acid substitutions were introduced into the wild-type RT gene by site-directed mutagenesis. RT clones were subcloned into the pKK233-2 bacterial expression vector. Clones provided included wild-type, Val106Ala, Tyr181Cys, Tyr188Cys, Tyr188Leu, Gly190Ala and Pro236Leu. Others were made in-house by site-directed mutagenesis of the pKK233-2 RT clones including Lys103Asn, Lys103Asn/Tyr181Cys, Lys103Asn/Leu100Ile, Lys103Asn/Pro225His, and Lys103Asn/Val108Ile.
Purification of recombinant reverse transcriptase was performed using a combination of methods previously described (3). A single colony from a fresh plate of transformed JM109 cells was used to initiate growth of a pre-culture grown o/n at 37° C. Two liters of growth medium were inoculated with this pre-culture. At OD600˜1.5 (5-6 h at 37° C.), RT gene expression was induced with IPTG (1 mM final), and the fermentation was continued for a few more hours at 37° C. After centrifugation, supernatants were discarded while cell pellets were pooled and stored at −80° C. until purification. Cells were thawed at 4° C. overnight and suspended in lysis buffer (MES 50 mM pH 6, EDTA 1 mM, 10% v/v glyerol, 0.02% w/v OBG, 0.02% w/v sodium azide). Lysozyme was added and the mixture was incubated on ice for 40 minutes. After homogenization using a bounce in presence of lysozyme and sonication, the cells were centrifuged for 30 minutes. Supernatant (S1) was saved and stored at 4° C. […]

As for `CCN1c2ncc(CCOc3cc[n+]([O-])c4ccccc34)cc2C(=O)N(C)c2ccc(F)nc21` [compound 11, 5,11-Dihydro-11-ethyl-2-fluoro-5-methyl-8-{2-{(1-oxido-4-quinolinyl)oxy}-ethyl}-6H-dipyrido[3,2-b:2′,3′-e][1,4]diazepin-6-one], the IC50 (as a rule, the concentration needed to halve the response being measured) in [1] is 15 nM; in assay [2], 55 nM; in assay [6] it was 336 nM; in [7] it was 102 nM; in assay [9], 56 nM. Further, the EC50 in [3] was found to be 7.5 nM; in [4], 4.1 nM; in assay [5] it was 3.9 nM; in assay [8] it was 0.34 nM.

Turning to `CCN1c2ncc(CCOc3cc[n+]([O-])c4ccccc34)cc2C(=O)N(C)c2cccnc21` [compound 21, 5,11-Dihydro-11-ethyl-5-methyl-8-{2-{(1-oxido-4-quinolinyl)oxy}ethyl}-6H-dipyrido[3,2-b:2′,3′-e][1,4]diazepin-6-one], the IC50 in [1] is 40 nM; in assay [2], 120 nM; in [6] it was 1110 nM; in assay [7], 168 nM; in [9], 129 nM. The EC50 amounted to 4.3 nM in assay [3], 4.8 nM in assay [4], 5 nM in assay [5] and 0.53 nM in assay [8].

On to `CCN1c2ncc(CCOc3cc[n+]([O-])c4ccccc34)cc2C(=O)N(C)c2ccc(Cl)nc21` [compound 17, 2-Chloro-5,11-dihydro-11-ethyl-5-methyl-8-{2-{(1-oxido-4-quinolinyl)oxy}-ethyl}-6H-dipyrido[3,2-b:2′,3′-e][1,4]diazepin-6-one], for which the IC50 in assay [1] was 23 nM; in [2] it was 83 nM; in assay [6], 319 nM; in [7], 40 nM; in assay [9], 60 nM. Moreover, the EC50 came out at 2.3 nM in [3], 2.8 nM in [4], 2.7 nM in [5] and 0.34 nM in assay [8].
